The record followed here is patent EP4810052A2, “HCRHR2 SELECTIVE POLYPEPTIDES” (Gubra A/S, priority 2023, dated 2026).

The EC50 is the concentration giving half of the maximal effect.

Starred links: 1 amine or outer side, 2 acyl side, 3 side chain; linkers in the order of their positions; H or OH if unused. Non-standard residues stand in square brackets, D forms with d. Residues, ends and D or L forms follow the SMILES beside them. Groups on a side chain read outwards from the residue. *: point of attachment. C20 diacid = O=C(O)CCCCCCCCCCCCCCCCCCC(=O)*; γGlu = O=C(O)[C@H](CCC(=O)[*:2])N[*:1]; NMeI = CC[C@H](C)[C@H](NC)C(=O)O; AEEA = NCCOCCOCC(=O)O

The assay deals with T1, hCRHR2 (Homo sapiens, UniProt Q13324).
T1 sequence (Q13324 1-411): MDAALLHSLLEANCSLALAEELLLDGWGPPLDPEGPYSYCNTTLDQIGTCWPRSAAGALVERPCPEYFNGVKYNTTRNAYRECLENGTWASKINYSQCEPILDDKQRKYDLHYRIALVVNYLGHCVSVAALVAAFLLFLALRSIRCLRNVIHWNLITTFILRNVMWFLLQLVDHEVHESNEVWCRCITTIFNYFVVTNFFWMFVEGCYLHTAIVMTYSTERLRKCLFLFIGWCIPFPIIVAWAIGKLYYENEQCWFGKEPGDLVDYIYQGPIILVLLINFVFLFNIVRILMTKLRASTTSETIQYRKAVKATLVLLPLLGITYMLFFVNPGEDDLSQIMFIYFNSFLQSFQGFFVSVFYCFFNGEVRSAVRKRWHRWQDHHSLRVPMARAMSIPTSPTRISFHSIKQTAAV
Nature of the assay: HTRF cAMP assay, determination of hCRHR2 potency (peptide libraries 5 conc., purified peptides 11 conc.). Type of assay: cell-based. Conditions: for Selectivity ratio (hCRHR1/ hCRHR2): hCRHR1-EC50/hCRHR2-EC50; for EC50: purified peptides, CHO-K1 cells stably expressing hCRHR2, cAMP HTRF, read-out: hCRHR2 EC50. The source says: HTRF (CisBio) cAMP assay: The assay technology has thoroughly been described in the CisBio HTRF cAMP assay Kit manual (# 62AM4PEC). Briefly, time resolved fluorescence technic was applied to measure cAMP. This technic is based on a competitive immunoassay using cryptate-labelled anti-cAMP antibody and d2-labeled cAMP. In the absence of cellular cAMP, the anti-cAMP cryptate conjugate may get into proximity to cAMP-d2 conjugate and energy (FRET) can be transferred from cryptate to d2.
CHO-K1 cells stably expressing the human corticotropin-releasing hormone receptor 2 (Eurofins/DiscoverX, Cat #95-0048C2 hCRHR2 stable monoclonal cell lines) were used as cells in suspension, brought to life from frozen cell stocks immediately before assay performance.
Concentration-response evaluation of compounds was performed with 5 concentrations of agonist peptides and EC50 values were calculated by nonlinear regression using sigmoid concentration-response with variable slope.
Concentration-response evaluation of compounds was performed with 11 concentrations of agonist peptides and EC50 values were calculated by nonlinear regression using sigmoid concentration-response with variable slope.

In the case of `CC[C@H](C)[C@H](NC(C)=O)C(=O)N[C@H](C(=O)N[C@@H](CC(C)C)C(=O)N[C@@H](CO)C(=O)N[C@@H](CC(C)C)C(=O)N[C@@H](CC(=O)O)C(=O)N[C@H](C(=O)N1CCC[C@H]1C(=O)N[C@H](C(=O)NCC(=O)N[C@@H](CC(C)C)C(=O)N[C@@H](CC(C)C)C(=O)N[C@@H](CCC(N)=O)C(=O)N[C@H](C(=O)N[C@@H](CC(C)C)C(=O)N[C@@H](CC(C)C)C(=O)N[C@@H](CCC(=O)O)C(=O)N[C@@H](CCC(N)=O)C(=O)N[C@@H](C)C(=O)N[C@@H](CCCNC(=N)N)C(=O)N[C@@H](C)C(=O)N[C@@H](CCCNC(=N)N)C(=O)N[C@@H](C)C(=O)N[C@@H](C)C(=O)N[C@@H](CCCNC(=N)N)C(=O)N[C@@H](CCC(=O)O)C(=O)N[C@@H](CCC(N)=O)C(=O)N[C@@H](C)C(=O)N[C@@H](CCCCNC(=O)COCCOCCNC(=O)COCCOCCNC(=O)CC[C@H](NC(=O)CC[C@H](NC(=O)CCCCCCCCCCCCCCCCCCC(=O)O)C(=O)O)C(=O)O)C(=O)N[C@H](C(=O)N[C@@H](CC(N)=O)C(=O)N[C@@H](C)C(=O)N[C@@H](CCC(=O)O)C(=O)N[C@H](C(=O)N[C@@H](CC(C)C)C(=O)N[C@@H](C)C(=O)N[C@@H](CCC(=O)O)C(=O)N[C@H](C(N)=O)C(C)C)[C@@H](C)CC)[C@@H](C)O)[C@@H](C)CC)[C@@H](C)CC)C(C)C)C(C)C` [SEQ ID NO: 8] (Ac-IVLSLDVPIGLLQILLEQARARAAREQAK([AEEA-AEEA-γGlu-γGlu-C20 diacid])TNAEILAEV-NH2), the “Selectivity ratio (hCRHR1/ hCRHR2)” value was determined as 400 and the EC50 was found to be 1.4 nM.

As for `CC[C@H](C)[C@H](NC(=O)COCCOCCNC(=O)COCCOCCNC(=O)CC[C@H](NC(=O)CC[C@H](NC(=O)CCCCCCCCCCCCCCCCCCC(=O)O)C(=O)O)C(=O)O)C(=O)N[C@H](C(=O)N[C@@H](CC(C)C)C(=O)N[C@@H](CO)C(=O)N[C@@H](CC(C)C)C(=O)N[C@@H](CC(=O)O)C(=O)N[C@H](C(=O)N1CCC[C@H]1C(=O)N[C@H](C(=O)NCC(=O)N[C@@H](CC(C)C)C(=O)N[C@@H](CC(C)C)C(=O)N[C@@H](CCC(N)=O)C(=O)N[C@H](C(=O)N[C@@H](CC(C)C)C(=O)N[C@@H](CC(C)C)C(=O)N[C@@H](CCC(=O)O)C(=O)N[C@@H](CCC(N)=O)C(=O)N[C@@H](C)C(=O)N[C@@H](CCCNC(=N)N)C(=O)N[C@@H](C)C(=O)N[C@@H](CCCNC(=N)N)C(=O)N[C@@H](C)C(=O)N[C@@H](C)C(=O)N[C@@H](CCCNC(=N)N)C(=O)N[C@@H](CCC(=O)O)C(=O)N[C@@H](CCC(N)=O)C(=O)N[C@@H](C)C(=O)N[C@H](C(=O)N[C@H](C(=O)N[C@@H](CC(N)=O)C(=O)N[C@@H](C)C(=O)N[C@@H](CCC(=O)O)C(=O)N[C@H](C(=O)N[C@@H](CC(C)C)C(=O)N[C@@H](C)C(=O)N[C@@H](CCC(=O)O)C(=O)N[C@H](C(N)=O)C(C)C)[C@@H](C)CC)[C@@H](C)O)[C@@H](C)O)[C@@H](C)CC)[C@@H](C)CC)C(C)C)C(C)C` [SEQ ID NO: 260] ({C20 diacid-γGlu-γGlu-AEEA-AEEA}-IVLSLDVPIGLLQILLEQARARAAREQATTNAEILAEV-NH2), the “Selectivity ratio (hCRHR1/ hCRHR2)” value amounted to 79 and the EC50 was 1.4 nM.

Turning to `CC[C@H](C)[C@H](NC)C(=O)N[C@H](C(=O)N[C@@H](CC(C)C)C(=O)N[C@@H](CO)C(=O)N[C@@H](CC(C)C)C(=O)N[C@@H](CC(=O)O)C(=O)N[C@H](C(=O)N1CCC[C@H]1C(=O)N[C@H](C(=O)NCC(=O)N[C@@H](CC(C)C)C(=O)N[C@@H](CC(C)C)C(=O)N[C@@H](CCC(N)=O)C(=O)N[C@H](C(=O)N[C@@H](CC(C)C)C(=O)N[C@@H](CC(C)C)C(=O)N[C@@H](CCC(=O)O)C(=O)N[C@@H](CCC(N)=O)C(=O)N[C@@H](CCC(=O)O)C(=O)N[C@@H](CCCCN)C(=O)N[C@@H](CCC(N)=O)C(=O)N[C@@H](CCC(=O)O)C(=O)N[C@@H](CCCCN)C(=O)N[C@@H](CCC(=O)O)C(=O)N[C@@H](CCCCN)C(=O)N[C@@H](CCC(N)=O)C(=O)N[C@@H](CCC(N)=O)C(=O)N[C@@H](C)C(=O)N[C@@H](CCCCNC(=O)COCCOCCNC(=O)COCCOCCNC(=O)CC[C@H](NC(=O)CC[C@H](NC(=O)CCCCCCCCCCCCCCCCCCC(=O)O)C(=O)O)C(=O)O)C(=O)N[C@H](C(=O)N[C@@H](CC(N)=O)C(=O)N[C@@H](C)C(=O)N[C@@H](CCC(N)=O)C(=O)N[C@H](C(=O)N[C@@H](CC(C)C)C(=O)N[C@@H](C)C(=O)N[C@@H](CCC(N)=O)C(=O)N[C@H](C(N)=O)C(C)C)[C@@H](C)CC)[C@@H](C)O)[C@@H](C)CC)[C@@H](C)CC)C(C)C)C(C)C` [SEQ ID NO: 9, reference compound] (H-[NMeI]VLSLDVPIGLLQILLEQEKQEKEKQQAK([AEEA-AEEA-γGlu-γGlu-C20 diacid])TNAQILAQV-NH2), the “Selectivity ratio (hCRHR1/ hCRHR2)” value is recorded as 392 and the EC50 is 1.3 nM.

Take `CC[C@H](C)[C@H](NC(=O)[C@H](CCC(=O)O)NC(=O)[C@H](C)NC(=O)[C@H](CC(N)=O)NC(=O)[C@@H](NC(=O)[C@@H](NC(=O)[C@H](C)NC(=O)[C@H](CCC(N)=O)NC(=O)[C@H](CCC(=O)O)NC(=O)[C@H](CCCNC(=N)N)NC(=O)[C@H](C)NC(=O)[C@H](C)NC(=O)[C@H](CCCNC(=N)N)NC(=O)[C@H](C)NC(=O)[C@H](CCCNC(=N)N)NC(=O)[C@H](C)NC(=O)[C@H](CCC(N)=O)NC(=O)[C@H](CCC(=O)O)NC(=O)[C@H](CC(C)C)NC(=O)[C@H](CC(C)C)NC(=O)[C@@H](NC(=O)[C@H](CCC(N)=O)NC(=O)[C@H](CC(C)C)NC(=O)[C@H](CC(C)C)NC(=O)CNC(=O)[C@@H](NC(=O)[C@@H]1CCCN1C(=O)[C@@H](NC(=O)[C@H](CC(=O)O)NC(=O)[C@H](CC(C)C)NC(=O)[C@H](CO)NC(=O)[C@H](CC(C)C)NC(=O)[C@@H](NC(=O)[C@@H](NC(=O)[C@@H](N)CCCCNC(=O)COCCOCCNC(=O)COCCOCCNC(=O)CC[C@H](NC(=O)CC[C@H](NC(=O)CC[C@H](NC(=O)CCCCCCCCCCCCCCCCCCC(=O)O)C(=O)O)C(=O)O)C(=O)O)[C@@H](C)CC)C(C)C)C(C)C)[C@@H](C)CC)[C@@H](C)CC)[C@@H](C)O)[C@@H](C)O)C(=O)N[C@@H](CC(C)C)C(=O)N[C@@H](C)C(=O)N[C@@H](CCC(=O)O)C(=O)N[C@H](C(N)=O)C(C)C` [SEQ ID NO: 11, reference compound] (H-K([AEEA-AEEA-γGlu-γGlu-γGlu-C20 diacid])IVLSLDVPIGLLQILLEQARARAAREQATTNAEILAEV-NH2): the “Selectivity ratio (hCRHR1/ hCRHR2)” value stood at 419 and the EC50 was determined as 1.6 nM.

As for `CC[C@H](C)[C@H](NC)C(=O)N[C@H](C(=O)N[C@H](C(=O)N[C@@H](CO)C(=O)N[C@@H](CC(C)C)C(=O)N[C@@H](CC(=O)O)C(=O)N[C@H](C(=O)N1CCC[C@H]1C(=O)N[C@H](C(=O)NCC(=O)N[C@@H](CC(C)C)C(=O)N[C@@H](CC(C)C)C(=O)N[C@@H](CCC(N)=O)C(=O)N[C@H](C(=O)N[C@@H](CC(C)C)C(=O)N[C@@H](CC(C)C)C(=O)N[C@@H](CCC(=O)O)C(=O)N[C@@H](CCC(N)=O)C(=O)N[C@@H](CCC(=O)O)C(=O)N[C@@H](CCCCN)C(=O)N[C@@H](CCC(N)=O)C(=O)N[C@@H](CCC(=O)O)C(=O)N[C@@H](CCCCN)C(=O)N[C@@H](CCC(=O)O)C(=O)N[C@@H](CCCCN)C(=O)N[C@@H](CCC(N)=O)C(=O)N[C@@H](CCC(N)=O)C(=O)N[C@@H](C)C(=O)N[C@@H](CCCCNC(=O)COCCOCCNC(=O)COCCOCCNC(=O)CC[C@H](NC(=O)CC[C@H](NC(=O)CCCCCCCCCCCCCCCCCCC(=O)O)C(=O)O)C(=O)O)C(=O)N[C@H](C(=O)N[C@@H](CC(N)=O)C(=O)N[C@@H](C)C(=O)N[C@@H](CCC(=O)O)C(=O)N[C@H](C(=O)N[C@@H](CC(C)C)C(=O)N[C@@H](C)C(=O)N[C@@H](CCC(N)=O)C(=O)N[C@H](C(N)=O)C(C)C)[C@@H](C)CC)[C@@H](C)O)[C@@H](C)CC)[C@@H](C)CC)C(C)C)[C@@H](C)O)C(C)C` [SEQ ID NO: 10, reference compound] (H-[NMeI]VTSLDVPIGLLQILLEQEKQEKEKQQAK([AEEA-AEEA-γGlu-γGlu-C20 diacid])TNAEILAQV-NH2), the “Selectivity ratio (hCRHR1/ hCRHR2)” value is recorded as 139 and the EC50 worked out at 0.49 nM.
